# Laboratory results taken from paper PMC10959927, “Platinum iodido drugs show potential anti-tumor activity, affecting cancer cell metabolism and inducing ROS and senescence in gastrointestinal cancer cells” (Communications Biology, 2024).
# Values joined by “and” are separate entries in the source; they are usually repeats but may differ in a detail not shown here. Equal values may be shown once.
# Assays:
# Type in all cases: cell-based, human
# PANC1 cells [1] = experiment: Immunofluorescence of γ-H2AX and 53BP1 foci; conditions: for foci/cell, share of cells in class (Suma 100) / foci/cell, number of cells in class: PANC1, Fig. 3B; for foci/cell, number of cells in class: cell count
# Procedure: (§1) Cells (7 × 10^4) were seeded on 20 mm coverslips. […] Coverslips were incubated for 1 h with the primary antibody (Cell Signaling: H2AX Ser139 (#2595) and 53BP1 (#4937)) at room temperature, followed by a 1 h incubation with the appropriate secondary antibody. DNA was stained with DAPI. Fluorescence microscopy was performed using a NIKON Eclipse 90i. The image analysis was performed using the software program Nikon NIS-Elements and Image J.
# AGS cells = experiment: Immunofluorescence of γ-H2AX and 53BP1 foci; conditions: for foci/cell, share of cells in class (Suma 100) / foci/cell, number of cells in class: Fig. 3B; for foci/cell, number of cells in class: cell count
# Procedure: as §1
# PANC1 cells [2] = experiment: Western blotting (p-p53, p-JNK, p-p38, p-ERK, p-CHK1/2, Mcl1, BID, BAX)
# Procedure: Total protein extracts were obtained by adding the lysis buffer: 25 mM HEPES pH 7.5, 0.3 M NaCl, 1.5 mM MgCl2, 0.2 mM EDTA, 0.5 mM DTT, 20 mM β-glicerophosphate, 0.1 mM Na3VO4, 0.1% triton X-100; in the presence of protease inhibitors. Twenty μg of protein per sample were loaded and resolved using 8%, 10% or 15% SDS-PAGE polyacrylamide gels, and then transferred onto PVDF membranes, followed by immunodetection using appropriate antibodies, purchased from Santa Cruz Technology: Mcl-1 (sc-819), Cell Signaling Technology: BIM, BID, BAX (#9942), p-p38 (1:2000, #4631), p-p53^ser15 (#9284), p-ERK1/2 (1:2000, #9106), p-CHK1^ser345 and p-CHK2^ser19 (#9931), Promega Corporation-Spain: p-JNK (#V7932), or Sigma-Aldrich: α-tubulin (1:10000, #TP026). Unless indicated, all antibodies were diluted 1:1000. Secondary antibodies conjugated with horseradish peroxidase were purchased from BioRad, and chemiluminescence detection was performed using ECL (Santa Cruz Biotechnology).
smiles,measurement,setting,value
"CC(C)[NH][Pt@SP1]([I])([I])[NH]C(C)C [I6, cis-[PtI2(isopropylamine)2]]",foci/cell: number of cells with 16-30 foci,"PANC1 cells [1]; PANC1, Fig. S4B, cell counts",43
same,foci/cell: number of cells with 31-45 foci,"PANC1 cells [1]; PANC1, Fig. S4B, cell counts",7
same,foci/cell: number of cells with 46-60 foci,"PANC1 cells [1]; PANC1, Fig. S4B, cell counts",2
same,foci/cell: number of cells with <15 foci,"PANC1 cells [1]; PANC1, Fig. S4B, cell counts",39
same,foci/cell: number of cells with >61 foci,"PANC1 cells [1]; PANC1, Fig. S4B, cell counts",5
same,foci/cell: share of cells with 16-30 foci (Suma 100),"PANC1 cells [1]; PANC1, Fig. S4B, share of N",44.7917
same,foci/cell: share of cells with 31-45 foci (Suma 100),"PANC1 cells [1]; PANC1, Fig. S4B, share of N",7.292
same,foci/cell: share of cells with 46-60 foci (Suma 100),"PANC1 cells [1]; PANC1, Fig. S4B, share of N",2.083
same,foci/cell: share of cells with <15 foci (Suma 100),"PANC1 cells [1]; PANC1, Fig. S4B, share of N",40.625
same,foci/cell: share of cells with >61 foci (Suma 100),"PANC1 cells [1]; PANC1, Fig. S4B, share of N",5.208
same,"foci/cell, share of cells in class (Suma 100)",PANC1 cells [1]; class 16-30 foci/cell,41.9753
same,"foci/cell, number of cells in class",PANC1 cells [1]; class 16-30 foci/cell,34
same,"foci/cell, share of cells in class (Suma 100)",PANC1 cells [1]; class 31-45 foci/cell,18.5185
same,"foci/cell, number of cells in class",PANC1 cells [1]; class 31-45 foci/cell,15
same,"foci/cell, share of cells in class (Suma 100)",PANC1 cells [1]; class 46-60 foci/cell,6.173
same,"foci/cell, number of cells in class",PANC1 cells [1]; class 46-60 foci/cell,5
same,"foci/cell, share of cells in class (Suma 100)",PANC1 cells [1]; class <15 foci/cell,22.2222
same,"foci/cell, number of cells in class",PANC1 cells [1]; class <15 foci/cell,18
same,"foci/cell, share of cells in class (Suma 100)",PANC1 cells [1]; class >61 foci/cell,11.1111
same,"foci/cell, number of cells in class",PANC1 cells [1]; class >61 foci/cell,9
same,"foci/cell, share of cells in class (Suma 100)",AGS cells; class 16-30 foci/cell,23.3831
same,"foci/cell, number of cells in class",AGS cells; class 16-30 foci/cell,47
same,"foci/cell, share of cells in class (Suma 100)",AGS cells; class 31-45 foci/cell,26.3682
same,"foci/cell, number of cells in class",AGS cells; class 31-45 foci/cell,53
same,"foci/cell, share of cells in class (Suma 100)",AGS cells; class 46-60 foci/cell,13.9303
same,"foci/cell, number of cells in class",AGS cells; class 46-60 foci/cell,28
same,"foci/cell, share of cells in class (Suma 100)",AGS cells; class <15 foci/cell,29.3532
same,"foci/cell, number of cells in class",AGS cells; class <15 foci/cell,59
same,"foci/cell, share of cells in class (Suma 100)",AGS cells; class >61 foci/cell,6.965
same,"foci/cell, number of cells in class",AGS cells; class >61 foci/cell,14
same,foci/cell: number of cells with 16-30 foci,"AGS cells; Fig. S4B, cell counts",54
same,foci/cell: number of cells with 31-45 foci,"AGS cells; Fig. S4B, cell counts",20
same,foci/cell: number of cells with 46-60 foci,"AGS cells; Fig. S4B, cell counts",3
same,foci/cell: number of cells with <15 foci,"AGS cells; Fig. S4B, cell counts",39
same,foci/cell: number of cells with >61 foci,"AGS cells; Fig. S4B, cell counts",4
same,foci/cell: share of cells with 16-30 foci (Suma 100),"AGS cells; Fig. S4B, share of N",45
same,foci/cell: share of cells with 31-45 foci (Suma 100),"AGS cells; Fig. S4B, share of N",16.6667
same,foci/cell: share of cells with 46-60 foci (Suma 100),"AGS cells; Fig. S4B, share of N",2.5
same,foci/cell: share of cells with <15 foci (Suma 100),"AGS cells; Fig. S4B, share of N",32.5
same,foci/cell: share of cells with >61 foci (Suma 100),"AGS cells; Fig. S4B, share of N",3.333
same,activation of p53 (p-p53 western blot),"PANC1 cells [2]; PANC1, IC50, 1, 3, 6 and 24 h",did not activate p53
same,"phosphorylation of CHK1/2 (DDR pathway, western blot)","PANC1 cells [2]; PANC1, IC50, 1, 3, 6 or 24 h",did not activate
same,fold change BAX vs Tubulin,"PANC1 cells [2]; PANC1, time 1 h, Fig. S3B",1.132 fold change and 1.289 fold change and 1.219 fold change
same,fold change MCL1 vs Tubulin,"PANC1 cells [2]; PANC1, time 1 h, Fig. S3B",0.6156 fold change and 0.9493 fold change and 1.031 fold change
same,fold change BAX vs Tubulin,"PANC1 cells [2]; PANC1, time 3 h, Fig. S3B",1.6811 fold change and 1.471 fold change and 1.573 fold change
same,fold change BAX vs Tubulin,"PANC1 cells [2]; PANC1, time 6 h, Fig. S3B",1.615 fold change and 2.78 fold change and 2.056 fold change
